*1 amine or outer side, *2 acyl side, *3 side chain or, on linkers, in order; H or OH if unused. Where a SMILES comes first, the peptide text is derived from it. The star is where a group is joined. X1 = O=C(CCCC[C@@H]1SC[C@@H]2NC(=O)N[C@@H]21)NCCCOCCOCCOCCCN*; Suc = O=C(CCC(=O)[*:2])[*:1]
Tested on: IL16-4
Experiment: Holdup assay, IL16-4
Assay type: binding, human

| SMILES | BI | LogKD |
| --- | --- | --- |
| CC[C@H](C)[C@H](NC(=O)[C@H](CCC(N)=O)NC(=O)[C@@H](NC(=O)[C@H](Cc1c[nH]cn1)NC(=O)[C@H](CCC(N)=O)NC(=O)[C@H](CC(=O)O)NC(=O)[C@H](CCC(=O)O)NC(=O)[C@H](CC(=O)O)NC(=O)CCC(=O)NCCCOCCOCCOCCCNC(=O)CCCC[C@@H]1SC[C@@H]2NC(=O)N[C@@H]21)[C@@H](C)O)C(=O)N[C@H](C(=O)N[C@@H](CCCCN)C(=O)N[C@H](C(=O)O)C(C)C)[C@@H](C)O [PTEN_11] | -0.028 | 3.519 |
| CC[C@H](C)[C@H](NC(=O)[C@H](CCC(N)=O)NC(=O)[C@@H](NC(=O)[C@H](Cc1c[nH]cn1)NC(=O)[C@H](CCC(N)=O)NC(=O)[C@H](CC(=O)O)NC(=O)[C@H](CCC(=O)O)NC(=O)[C@H](CC(=O)O)NC(=O)CCC(=O)NCCCOCCOCCOCCCNC(=O)CCCC[C@@H]1SC[C@@H]2NC(=O)N[C@@H]21)[C@@H](C)O)C(=O)N[C@H](C(=O)N[C@@H](CCCCNC(C)=O)C(=O)N[C@H](C(=O)O)C(C)C)[C@@H](C)O [PTEN_Ac] | 0.014 | 3.605 |
| CC[C@H](C)[C@H](NC(=O)[C@H](CCC(N)=O)NC(=O)[C@@H](NC(=O)[C@H](Cc1c[nH]cn1)NC(=O)[C@H](CCC(N)=O)NC(=O)[C@H](CC(=O)O)NC(=O)[C@H](CCC(=O)O)NC(=O)[C@H](CC(=O)O)NC(=O)CCC(=O)NCCCOCCOCCOCCCNC(=O)CCCC[C@@H]1SC[C@@H]2NC(=O)N[C@@H]21)[C@@H](C)O)C(=O)N[C@H](C(=O)N[C@@H](CCCNC(=N)N)C(=O)N[C@H](C(=O)O)C(C)C)[C@@H](C)O [PTEN_KR] ({X1-Suc}-DEDQHTQITRV-OH) | 0.002 | 3.655 |
| CC[C@H](C)[C@H](NC(=O)[C@H](CCC(N)=O)NC(=O)[C@@H](NC(=O)[C@H](Cc1c[nH]cn1)NC(=O)[C@H](CCC(N)=O)NC(=O)[C@H](CC(=O)O)NC(=O)[C@H](CCC(=O)O)NC(=O)[C@H](CC(=O)O)NC(=O)[C@H](Cc1ccccc1)NC(=O)[C@@H]1CCCN1C(=O)CCC(=O)NCCCOCCOCCOCCCNC(=O)CCCC[C@@H]1SC[C@@H]2NC(=O)N[C@@H]21)[C@@H](C)O)C(=O)N[C@H](C(=O)N[C@@H](CCCCN)C(=O)N[C@H](C(=O)O)C(C)C)[C@@H](C)O [PTEN_13] ({X1-Suc}-PFDEDQHTQITKV-OH) | 0.014 | – |
